According to article PMC9579956 (RSC Medicinal Chemistry, 2022):
Where “and” joins values, the source holds several entries; their conditions need not be identical. Equal values may be shown once.

Columns and labels:
[1] = target: T1, Mycobacterium thermoresistible (Mtr) LpqY (Mycolicibacterium thermoresistibile, UniProt G7CES0); assay type: binding; details: for Screen signal/noise ratio (MST S/N): compound 100 μM, LpqY 500 nM, 10% DMSO, duplicate; for Pathogen Box screen signal/noise ratio: single dose MST screen against LpqY
T1 sequence (G7CES0 29-471): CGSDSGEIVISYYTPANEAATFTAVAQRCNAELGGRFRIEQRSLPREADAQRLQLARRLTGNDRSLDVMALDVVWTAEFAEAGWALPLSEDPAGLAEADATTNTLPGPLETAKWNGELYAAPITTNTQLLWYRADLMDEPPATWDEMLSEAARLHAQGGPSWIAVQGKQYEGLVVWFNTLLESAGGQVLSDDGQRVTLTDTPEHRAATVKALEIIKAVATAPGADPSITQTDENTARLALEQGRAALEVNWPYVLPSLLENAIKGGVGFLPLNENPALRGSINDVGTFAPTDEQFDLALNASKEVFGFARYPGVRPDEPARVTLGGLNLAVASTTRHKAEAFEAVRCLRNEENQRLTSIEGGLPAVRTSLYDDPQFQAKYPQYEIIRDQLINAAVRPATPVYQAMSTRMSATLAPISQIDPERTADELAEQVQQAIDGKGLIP

[2] = target: T1, Mycobacterium thermoresistible (Mtr) LpqY; assay type: binding; details: for Hit validation Binding score: MST re-evaluation of hits against LpqY; for Validation binding score (MST): quadruplicate, new batch of LpqY

Structure (SMILES): COc1cc(C2=NCCN2)cc2cc(-c3ccc(C4=NCCN4)cc3)oc12 [MMV688362, 2-[4-[5-(4,5-dihydro-1H-imidazol-2-yl)-7-methoxy-1-benzofuran-2-yl]phenyl]-4,5-dihydro-1H-imidazole]
- Screen signal/noise ratio (MST S/N) [1]: 12.6
- Pathogen Box screen signal/noise ratio [1]: 12.6
- Hit validation Binding score [2]: 14.8

Structure (SMILES): CS(=O)(=O)c1ccccc1C(=O)N(Cc1ccccc1)c1ccccc1 [MMV688798, N-benzyl-2-methylsulfonyl-N-phenylbenzamide]
- Screen signal/noise ratio (MST S/N) [1]: 5.2
- Pathogen Box screen signal/noise ratio [1]: 5.2
- Hit validation Binding score [2]: 1.3
- Validation binding score (MST) [2]: 1.3

Structure (SMILES): COc1ccccc1OCCCCn1c(C2CC2)nc2ccccc21 [MMV676474, 2-cyclopropyl-1-[4-(2-methoxyphenoxy)butyl]benzimidazole]
- Screen signal/noise ratio (MST S/N) [1]: 6.0
- Pathogen Box screen signal/noise ratio [1]: 6.0
- Hit validation Binding score [2]: 6.2
- Validation binding score (MST) [2]: 6.2 and > 5

Structure (SMILES): COc1ccc(N(CCc2cccc(C)n2)C(=O)C2CCCCC2)cc1 [MMV675996, N-(4-methoxyphenyl)-N-[2-(6-methylpyridin-2-yl)ethyl]cyclohexanecarboxamide]
- Screen signal/noise ratio (MST S/N) [1]: 6.0
- Pathogen Box screen signal/noise ratio [1]: 6.0
- Hit validation Binding score [2]: 4.9
- Validation binding score (MST) [2]: 4.9

Structure (SMILES): O=C(Nc1cccc(Cl)c1)c1cnc(N2CCN(c3ccncc3)CC2)c(Cl)c1 [MMV024406, 5-chloro-N-(3-chlorophenyl)-6-(4-pyridin-4-ylpiperazin-1-yl)pyridine-3-carboxamide]
- Screen signal/noise ratio (MST S/N) [1]: 5.2
- Pathogen Box screen signal/noise ratio [1]: 5.2
- Hit validation Binding score [2]: 2.3
- Validation binding score (MST) [2]: 2.3

Structure (SMILES): CNC(=O)C1Cc2c([nH]c3cc(Cl)ccc23)C2(CCN(CCc3ccccc3)CC2)N1 (stereo not drawn) [MMV031011, 7-chloro-N-methyl-1'-(2-phenylethyl)spiro[2,3,4,9-tetrahydropyrido[3,4-b]indole-1,4'-piperidine]-3-carboxamide]
- Screen signal/noise ratio (MST S/N) [1]: 5.7
- Pathogen Box screen signal/noise ratio [1]: 5.7
- Hit validation Binding score [2]: 3.7
- Validation binding score (MST) [2]: 3.7

Structure (SMILES): CC1(C)OB(O)c2ccc(C3=NOC(c4cc(Cl)c(F)c(Cl)c4)(C(F)(F)F)C3)cc21 (stereo not drawn) [MMV687775, 5-(3,5-dichloro-4-fluorophenyl)-3-(1-hydroxy-3,3-dimethyl-2,1-benzoxaborol-5-yl)-5-(trifluoromethyl)-4H-1,2-oxazole]
- Screen signal/noise ratio (MST S/N) [1]: 6.6
- Pathogen Box screen signal/noise ratio [1]: 6.6
- Hit validation Binding score [2]: 3.9
- Validation binding score (MST) [2]: 3.9

Structure (SMILES): OC[C@H]1O[C@H](O[C@H]2O[C@H](CO)[C@@H](O)[C@H](O)[C@H]2O)[C@H](O)[C@@H](O)[C@@H]1O [Trehalose, α-D-glucopyranosyl-α-D-glucopyranoside, reference compound]
- Hit validation Binding score [2]: 8.3
- Validation binding score (MST) [2]: 8.3

Structure (SMILES): CC(C)=CCC/C(C)=C\CNCCNC1C2CC3CC(C2)CC1C3 (stereo not drawn) [MMV687273]
- Pathogen Box screen signal/noise ratio [1]: 1.3

Structure (SMILES): COc1ccc(-c2nc(-c3cccc(NC(=O)Cc4ccc(F)cc4)c3)no2)cc1OC [MMV676571]
- Pathogen Box screen signal/noise ratio [1]: 3.5

Structure (SMILES): CCCCCCCCCCCCCCCCOP(=O)([O-])OCC[N+](C)(C)C [MMV688990]
- Pathogen Box screen signal/noise ratio [1]: 0.7

Structure (SMILES): Cn1c(=O)c2c(S(C)(=O)=O)snc2n(C)c1=O [MMV687251]
- Pathogen Box screen signal/noise ratio [1]: 0.0729

Structure (SMILES): COc1cccc(-c2nc3c(N4CCCC4)cccc3n2CC2CCCN2)n1 (stereo not drawn) [MMV687703]
- Pathogen Box screen signal/noise ratio [1]: 1.3

Structure (SMILES): Cc1cc(OCC(=O)Nc2ccc(C(C)C)cc2)n(C)c(=O)c1C#N [MMV1198433]
- Pathogen Box screen signal/noise ratio [1]: 1.0

Structure (SMILES): Cc1[nH]c2cc(F)cc(F)c2c(=O)c1-c1ccc(Oc2ccc(OC(F)(F)F)cc2)cc1 [MMV671636]
- Pathogen Box screen signal/noise ratio [1]: 0.545

Structure (SMILES): CCC(Sc1nc2ccccc2o1)C(=O)Nc1nnc(C)s1 (stereo not drawn) [MMV611037]
- Pathogen Box screen signal/noise ratio [1]: 0.9

Structure (SMILES): Cc1ccc2[nH]c(C3CCCNC3)c(-c3ccncc3)c2c1 (stereo not drawn) [MMV024311]
- Pathogen Box screen signal/noise ratio [1]: 0.4

Structure (SMILES): Cc1ccc(-c2nc(CN(Cc3ccccn3)C(C)C)cs2)o1 [MMV1088520]
- Pathogen Box screen signal/noise ratio [1]: 0.0

Structure (SMILES): CCCCS(=O)(=O)Nc1ccc2cnn(C)c2c1 [MMV687145]
- Pathogen Box screen signal/noise ratio [1]: 1.4

Structure (SMILES): N=C(N)c1ccc(OCCCCCOc2ccc(C(=N)N)cc2)cc1 [MMV000062]
- Pathogen Box screen signal/noise ratio [1]: 0.3

Structure (SMILES): COc1cccc2c(C)nc(N=C(N)N)nc12 [MMV000907]
- Pathogen Box screen signal/noise ratio [1]: 1.1

Structure (SMILES): c1ccc(-c2cc(N3CCCCC3)c3ccccc3n2)nc1 [MMV560185]
- Pathogen Box screen signal/noise ratio [1]: 0.7

Structure (SMILES): CN1CCN(c2nccc3nc(-c4ccc(F)c(F)c4)[nH]c23)CC1 [MMV676260]
- Pathogen Box screen signal/noise ratio [1]: 0.635

Structure (SMILES): CO[C@H]1/C=C/O[C@@]2(C)Oc3c(C)c(O)c4c(O)c(/c(=C/NN5CCN(C)CC5)c(O)c4c3C2=O)=N\C(=O)/C(C)=C\C=C/[C@H](C)[C@H](O)[C@@H](C)[C@@H](O)[C@@H](C)[C@H](OC(C)=O)[C@@H]1C [MMV688775]
- Pathogen Box screen signal/noise ratio [1]: 1.1

Structure (SMILES): COCC(C)NC(=O)CSc1ncnc2sc(-c3ccccc3)cc12 (stereo not drawn) [MMV676536]
- Pathogen Box screen signal/noise ratio [1]: 1.9

Structure (SMILES): CC(=O)NCC1CN(c2ccc(-c3ccc(CO)cc3)c(F)c2)C(=O)O1 (stereo not drawn) [MMV688508]
- Pathogen Box screen signal/noise ratio [1]: 0.8

Structure (SMILES): O=[N+]([O-])c1cn2c(n1)OC[C@@H](OCc1ccc(OC(F)(F)F)cc1)C2 [MMV688755]
- Pathogen Box screen signal/noise ratio [1]: 0.4

Structure (SMILES): CC1(COc2ccc(N3CCC(Oc4ccc(OC(F)(F)F)cc4)CC3)cc2)Cn2cc([N+](=O)[O-])nc2O1 (stereo not drawn) [MMV688262]
- Pathogen Box screen signal/noise ratio [1]: 0.232

Structure (SMILES): CCCn1nnc(NC(=O)COc2ccc(C3CCCCC3)cc2)n1 [MMV676597]
- Pathogen Box screen signal/noise ratio [1]: 0.551

Structure (SMILES): N=C(N)c1ccc(-c2cc(-c3ccccc3)on2)cc1 [MMV688514]
- Pathogen Box screen signal/noise ratio [1]: 1.1

Structure (SMILES): Cn1ccnc1CNCCS(=O)(=O)c1cccc(Nc2ccc(-c3cccc(F)c3)cn2)c1 [MMV688466]
- Pathogen Box screen signal/noise ratio [1]: 0.0

Structure (SMILES): Cc1ccc(C(=O)Nc2ccc(S(=O)(=O)O)c3cc(S(=O)(=O)O)cc(S(=O)(=O)O)c23)cc1NC(=O)c1cccc(NC(=O)Nc2cccc(C(=O)Nc3cc(C(=O)Nc4ccc(S(=O)(=O)O)c5cc(S(=O)(=O)O)cc(S(=O)(=O)O)c45)ccc3C)c2)c1 [MMV637953]
- Pathogen Box screen signal/noise ratio [1]: 0.7

Structure (SMILES): COc1ccc(-c2nn(C(C)C)c3ncnc(N)c23)cc1OC [MMV675993]
- Pathogen Box screen signal/noise ratio [1]: 0.75

Structure (SMILES): COc1ccc(-c2cnc3cnc(-c4cccc(OC(C)C)c4)cn23)cc1 [MMV688270]
- Pathogen Box screen signal/noise ratio [1]: 0.0179

Structure (SMILES): COc1ccccc1CNC(=O)c1cc(C2CC2)nc2c1cnn2C(C)C [MMV020517]
- Pathogen Box screen signal/noise ratio [1]: 2.3

Structure (SMILES): Cc1ccccc1C(=O)N1N=C(Nc2ccccc2)SC1(C)C [MMV688771]
- Pathogen Box screen signal/noise ratio [1]: 0.4

Structure (SMILES): CC(C(=O)Nc1ccc2oc(-c3ccncc3)nc2c1)c1ccccc1 (stereo not drawn) [MMV688471]
- Pathogen Box screen signal/noise ratio [1]: 1.6

Structure (SMILES): CCc1nn(C)c(C(=O)NCc2ccc(Oc3ccc(C)cc3)cc2)c1Cl [MMV688934]
- Pathogen Box screen signal/noise ratio [1]: 1.5

Structure (SMILES): Cc1cc(NCC(C)C)c2n[nH]c(-c3ccccc3)c2n1 [MMV021375]
- Pathogen Box screen signal/noise ratio [1]: 0.9

Structure (SMILES): CN(C(=O)c1cc2c(-c3cncnc3)cccc2[nH]1)c1ccccc1 [MMV024443]
- Pathogen Box screen signal/noise ratio [1]: -0.0357

Structure (SMILES): c1ccc(Oc2ccc(-c3cncc(-c4ccc5[nH]ccc5c4)n3)cc2)cc1 [MMV688178]
- Pathogen Box screen signal/noise ratio [1]: 1.0

Structure (SMILES): CC(C)(C)C(=O)N(CCCCCCN1C[C@H](O)[C@@H](O)[C@H](O)[C@H]1CO)C1CCCCCC1 [MMV688543]
- Pathogen Box screen signal/noise ratio [1]: 1.3

Structure (SMILES): CC[C@@H]([C@H](C)O)n1ncn(-c2ccc(N3CCN(c4ccc(OC[C@@H]5CO[C@@](Cn6cncn6)(c6ccc(F)cc6F)C5)cc4)CC3)cc2)c1=O [MMV688774]
- Pathogen Box screen signal/noise ratio [1]: 3.4

Structure (SMILES): CCC(=O)Nc1ccccc1C(=O)Nc1ccccn1 [MMV202553]
- Pathogen Box screen signal/noise ratio [1]: 1.4

Structure (SMILES): CCCc1ccc(S(=O)(=O)Nc2ccc(CN3CCN(CC4CC4)CC3)cc2)cc1 [MMV688125]
- Pathogen Box screen signal/noise ratio [1]: 0.6

Structure (SMILES): c1ccc(Oc2ccc(-c3cc(CN4CCOCC4)[nH]n3)cc2)cc1 [MMV676161]
- Pathogen Box screen signal/noise ratio [1]: 1.1

Structure (SMILES): O=C1N(Cc2cc3ccccc3s2)CC2CN(Cc3ccccc3)CCN12 (stereo not drawn) [MMV084603]
- Pathogen Box screen signal/noise ratio [1]: 1.3

Structure (SMILES): CCC(Sc1nc2ccccc2o1)C(=O)Nc1nccs1 (stereo not drawn) [MMV676383]
- Pathogen Box screen signal/noise ratio [1]: 0.8

Structure (SMILES): COc1cccc(NC(=O)c2c(NC(=O)c3cccnc3)sc3c2CCC3)c1 [MMV228911]
- Pathogen Box screen signal/noise ratio [1]: 2.2

Structure (SMILES): CCS(=O)(=O)N(Cc1ccco1)Cc1cc2ccc(C)cc2nc1O [MMV676398]
- Pathogen Box screen signal/noise ratio [1]: -0.167

Structure (SMILES): Nc1c2c(nc3sc4c(c13)CCCC4)CCCC2 [MMV676588]
- Pathogen Box screen signal/noise ratio [1]: 0.449

Structure (SMILES): O=C(Nc1cccnc1)c1c(O)c2cccc3c2n(c1=O)CC3 [MMV676395]
- Pathogen Box screen signal/noise ratio [1]: 2.1

Structure (SMILES): CCOc1ccc2cc(-c3nn(CC4CCN(C)CC4)c4ncnc(N)c34)ccc2c1 [MMV688854]
- Pathogen Box screen signal/noise ratio [1]: 1.2

Structure (SMILES): CC(C)(C)c1cc(C(=O)Nc2cccnc2)cc(C(=O)Nc2cccnc2)c1 [MMV020982]
- Pathogen Box screen signal/noise ratio [1]: 1.3

Structure (SMILES): C[C@@H]1[C@H](O)[C@@H](C)/C=C/C=C/C=C/C=C/C=C/C=C/C=C/[C@H](O[C@@H]2O[C@H](C)[C@@H](O)[C@H](N)[C@@H]2O)C[C@@H]2O[C@](O)(C[C@@H](O)C[C@@H](O)[C@H](O)CC[C@@H](O)C[C@@H](O)CC(=O)O[C@H]1C)C[C@H](O)[C@H]2C(=O)O [MMV689000]
- Pathogen Box screen signal/noise ratio [1]: 1.1

Structure (SMILES): Cc1ccc2c(c1C)NC(=O)C21NN=C(c2ccccc2)S1 (stereo not drawn) [MMV019189]
- Pathogen Box screen signal/noise ratio [1]: 1.4

Structure (SMILES): O=C(NC1CCN(c2ccnc3ccccc23)C1)c1cccc(C(F)(F)F)c1 (stereo not drawn) [MMV023388]
- Pathogen Box screen signal/noise ratio [1]: -0.0357

Structure (SMILES): NCCCC(N)(C(=O)O)C(F)F (stereo not drawn) [MMV001625]
- Pathogen Box screen signal/noise ratio [1]: 0.316

Structure (SMILES): O=S(=O)(c1ccc(Cl)cc1)N1CCN(C(=S)NCc2ccco2)CC1 [MMV000858]
- Pathogen Box screen signal/noise ratio [1]: 2.2

Structure (SMILES): COC(=O)C1=C(C)NC(C)=C(C(=O)OC(C)C)C1c1cccc2nonc12 (stereo not drawn) [MMV001493]
- Pathogen Box screen signal/noise ratio [1]: 1.1
